Results published in patent US8338414B2, “Immunosuppressive agent and anti-tumor agent comprising heterocyclic compound as active ingredient” (Zenyaku Kogyo KabushikiKaisha, priority 2005, dated 2012).
Like-named read-outs stand apart in the source and are kept apart here.

Key:
[1] = tested on: allogeneic mixed lymphocyte reaction; assay: Allogeneic mixed lymphocyte reaction; assay type: cell-based, mouse; settings: C57BL/6N spleen stimulator cells, BALB/c lymph node responder cells, 86 hours, BrdU
Description: Spleen cells prepared from C57BL/6N female mice (8-10 weeks old, purchased from Charles River Laboratories Japan Inc.) and peripheral lymph node mononuclear cells prepared from BALB/c female mice (8-10 weeks old, purchased from Charles River Laboratories Japan Inc.) were used as stimulator cells and responder cells, respectively. The respective cells were suspended in RPMI 1640 medium (containing 10% fetal bovine serum, 100 units/mL penicillin, and 0.1 mg/mL streptomycin) (with 2×10^6 cells/mL).

THP-1 cells = assay: Proliferation inhibitory activity on hematologic neoplasm cells, THP-1; assay type: cell-based; settings: 3 days, Alamar Blue
Description: (§1) Daudi cells (5×10^5 cells/mL), Jurkat cells (5×10^5 cells/mL), THP-1 cells (5×10^5 cells/mL), U 937 cells (5×10^5 cells/mL), and HL 60 cells (5×10^5 cells/mL) suspended in RPMI 1640 medium (containing 10% fetal bovine serum, 10 mM HEPES, 1 mM pyruvic acid, 4.5 g/L glucose, 100 units/mL penicillin, and 0.1 mg/mL streptomycin) were seeded in 96 well plates at a capacity of 0.135 mL per well. Serial dilutions of test substances were added to respective wells at 15 μL/well, and incubated under conditions of carbon dioxide 5% at 37° C. for 3 days. Thereafter, Alamar Blue solution was added at 50 μL, and after incubation for one day, the fluorescence intensity at 590 nm using an excitation wavelength of 530 nm was determined by Cytoflour 4000 (Applied Biosystems).

HL 60 cells = assay: Proliferation inhibitory activity on hematologic neoplasm cells, HL60; assay type: cell-based; settings: 3 days, Alamar Blue
Description: as §1

U 937 cells = assay: Proliferation inhibitory activity on hematologic neoplasm cells, U937; assay type: cell-based; settings: 3 days, Alamar Blue
Description: as §1

Jurkat cells = assay: Proliferation inhibitory activity on hematologic neoplasm cells, Jurkat; assay type: cell-based; settings: 3 days, Alamar Blue
Description: as §1

[2] = tested on: Rabbit synoviocytes HIG-82; assay: Inhibition assay for proliferation of rabbit synoviocyte; assay type: cell-based; settings: HIG-82, 3 days, Alamar Blue
Description: Rabbit synoviocytes HIG-82 suspended in HAM medium (containing 10% fetal bovine serum, 25 mM HEPES, and 0.1 mg/mL kanamycin) (with 4×10^4 cells/mL) were seeded in wells of a 96 well plate at 0.135 mL per well. Then, 15 μL of each of serial dilutions of test substances was added to a respective well, and incubated under conditions of carbon dioxide 5% at a temperature 37° C. Alamar Blue solution was added at 50 μL per well on day 0 and day 3, and incubated for one day, and thereafter fluorescence intensity at 590 nm using an excitation wavelength of 530 nm was determined by Cytoflour 4000 (Applied Biosystems).

Daudi cells = assay: Proliferation inhibitory activity on hematologic neoplasm cells, Daudi; assay type: cell-based; settings: 3 days, Alamar Blue
Description: as §1

[3] = tested on: human peripheral blood mononuclear cells; assay: Proliferation inhibition assay for human peripheral blood mononuclear cells; assay type: cell-based; settings: PBMC, anti-CD3 and anti-CD28 antibody, 3 days, Alamar Blue
Description: 4 mL of blood collected from healthy subjects was placed on 3 mL of MonoPoly Resolving Medium, and after centrifugation, the mononuclear cell (PBMC) fraction was collected. After washing with saline, PBMC (1×10^5 cells/mL) was suspended in RPMI 1640 medium (containing 10% fetal bovine serum, 10 mM HEPES, 1 mM pyruvic acid, and 4.5 g/L glucose). Next, after having added an anti-CD28 antibody (1 μg/mL) to the suspension, they were seeded on an anti-human CD3 T cell activation plate (BD Bioscience) at a capacity of 0.135 mL per well. Then, serial dilutions of test substances were added to respective wells, and incubated under conditions of carbon dioxide 5% at a temperature 37° C. After 3 days, Alamar Blue solution was added at 50 μL per well, and after incubation for one day, a fluorescence intensity at 590 nm using an excitation wavelength of 530 nm was determined by Cytoflour 4000 (Applied Biosystems).

mouse spleen cells = assay: Proliferation inhibition assay for mouse spleen cells; assay type: cell-based; settings: 3 days, Alamar Blue
Description: Spleen cells (2×10^6 cells/mL) prepared from C57BL/6N female mice (8 weeks old, purchased from Charles River Laboratories Japan Inc.) were suspended in RPMI 1640 medium (containing 10% fetal bovine serum, 10 mM HEPES, 1 mM pyruvic acid, 4.5 g/L glucose, 100 units/mL penicillin, and 0.1 mg/mL streptomycin), and seeded in wells of a 96 well plate at 0.225 mL per well. Serial dilutions of test substances were added to respective wells, and then concanavalin A (Con A, 3 μg/mL), lipopolysaccharide (LPS, 100 μg/mL), or an anti-mouse IgM antibody (100 μg/mL) were added. Thereafter, they were incubated under conditions of carbon dioxide 5% at a temperature 37° C. for 3 days. Next, Alamar Blue solution was added at 50 μL per 150 μL, and after having cultured for one day, the fluorescence intensity at 590 nm using an excitation wavelength of 530 nm was determined by Cytoflour 4000 (Applied Biosystems).

[4] = 72 h, LPS 100 μg/mL, read-out: Inhibition of LPS response
[5] = 72 h, concanavalin A 3 μg/mL, read-out: Inhibition of Con A response
[6] = 72 h, anti-mouse IgM antibody 100 μg/mL, read-out: Inhibition of Anti-IgM antibody response

2-(2-Difluoromethyl-4-hydroxybenzimidazol-1-yl)-4-morpholino-6-(2,6-dimethylmorpholino)pyrimidine [Compound 11]
IC50 [1]: 1430 nM | IC50 (THP-1 cells): > 10000 nM | IC50 (HL 60 cells): > 10000 nM | IC50 (U 937 cells): > 10000 nM | IC50 (Jurkat cells): > 10000 nM | IC50 [2]: > 10000 nM | IC50 (Daudi cells): 2750 nM | IC50 [3]: > 10000 nM

Cc1nc2ccccc2n1-c1nc(N2CCOCC2)nc(N2CCOCC2)n1 [Compound 1, 2-(2-Methylbenzimidazol-1-yl)-4,6-dimorpholino-1,3,5-triazine]
IC50 ([1]; Mus musculus, Lymphocyte): 670 nM | IC50 (THP-1 cells; Homo sapiens, THP-1, 72 h): 535 nM | IC50 (HL 60 cells; Homo sapiens, HL-60, 72 h): > 10000 nM | IC50 (mouse spleen cells; [4]): 100 to 10000 nM | IC50 (mouse spleen cells; [5]): 100 to 10000 nM | IC50 (U 937 cells; Homo sapiens, U-937, 72 h): > 10000 nM | IC50 (Jurkat cells; Homo sapiens, Jurkat, 72 h): 5020 nM | IC50 ([2]; Oryctolagus cuniculus, 72 h): 4850 nM | IC50 (Daudi cells; Homo sapiens, Daudi, 72 h): 827 nM | melting point: 218 to 220 °C (dec.) | IC50 ([3]; Homo sapiens, 72 h): 1780 nM

Oc1ccc2c(c1)nc(C(F)F)n2-c1nc(N2CCOCC2)nc(N2CCOCC2)n1 [Compound 12, 2-(2-Difluoromethyl-5-hydroxybenzimidazol-1-yl)-4,6-dimorpholino-1,3,5-triazine]
IC50 (mouse spleen cells; [4]): 1 to 100 nM | IC50 (mouse spleen cells; [6]): 1 to 100 nM | IC50 (mouse spleen cells; [5]): 1 to 100 nM | melting point: 272 to 274 °C

CC1(C)CN(c2nc(N3CCOCC3)nc(-n3c(C(F)F)nc4ccc(N)cc43)n2)CCO1 [Compound 13, 2-(6-Amino-2-difluoromethylbenzimidazol-1-yl)-4-(2,2-dimethylmorpholino)-6-morpholino-1,3,5-triazine]
IC50 (mouse spleen cells; [4]): 1 to 100 nM | IC50 (mouse spleen cells; [6]): 1 to 100 nM | IC50 (mouse spleen cells; [5]): 1 to 100 nM | melting point: 226 to 227 °C (dec.)

Nc1cccc2c1nc(C(F)F)n2-c1nc(N2CCOCC2)nc(N2CCOCC2)n1 [Compound 14, 2-(4-Amino-2-difluoromethylbenzimidazol-1-yl)-4,6-dimorpholino-1,3,5-triazine]
IC50 ([1]; Mus musculus, Lymphocyte): 227 nM | IC50 (THP-1 cells; Homo sapiens, THP-1, 72 h): 286 nM | IC50 (HL 60 cells; Homo sapiens, HL-60, 72 h): 396 nM | IC50 (U 937 cells; Homo sapiens, U-937, 72 h): 1110 nM | IC50 (Jurkat cells; Homo sapiens, Jurkat, 72 h): 1340 nM | IC50 ([2]; Oryctolagus cuniculus, 72 h): 484 nM | IC50 (Daudi cells; Homo sapiens, Daudi, 72 h): 65.5 nM | melting point: 214 to 216 °C (dec.) | IC50 ([3]; Homo sapiens, 72 h): 92.3 nM

Oc1ccc2nc(C(F)F)n(-c3nc(N4CCOCC4)nc(N4CCOCC4)n3)c2c1 [Compound 16, 2-(2-Difluoromethyl-6-hydroxybenzimidazol-1-yl)-4,6-dimorpholino-1,3,5-triazine]
IC50 ([1]; Mus musculus, Lymphocyte): 460 nM | IC50 (THP-1 cells; Homo sapiens, THP-1, 72 h): 112 nM | IC50 (HL 60 cells; Homo sapiens, HL-60, 72 h): 67.2 nM | IC50 (U 937 cells; Homo sapiens, U-937, 72 h): 604 nM | IC50 (Jurkat cells; Homo sapiens, Jurkat, 72 h): 357 nM | IC50 ([2]; Oryctolagus cuniculus, 72 h): 163 nM | IC50 (Daudi cells; Homo sapiens, Daudi, 72 h): 10.3 nM | melting point: > 250 °C | IC50 ([3]; Homo sapiens, 72 h): 12.3 nM

CC1CN(c2cc(N3CC(C)OC(C)C3)nc(-n3c(C(F)F)nc4cc(N)ccc43)n2)CC(C)O1 (stereo not shown) [Compound 17, 2-(5-Amino-2-difluoromethylbenzimidazol-1-yl)-4,6-di(2,6-dimethylmorpholino)pyrimidine]
IC50 (mouse spleen cells; [4]): 10000 to 100000 nM | IC50 (mouse spleen cells; [6]): 100 to 10000 nM | IC50 (mouse spleen cells; [5]): 100 to 10000 nM | melting point: 157 to 160 °C

CC1(C)CN(c2cc(N3CCOCC3)nc(-n3c(C(F)F)nc4c(O)cccc43)n2)CCO1 [Compound 21, 2-(2-Difluoromethyl-4-hydroxybenzimidazol-1-yl)-4-(2,2-dimethylmorpholino)-6-morpholinopyrimidine]
IC50 (mouse spleen cells; [4]): ≤ 1 nM | IC50 (mouse spleen cells; [6]): ≤ 1 nM | IC50 (mouse spleen cells; [5]): ≤ 1 nM | melting point: 185 to 187 °C

COc1ccc2c(c1)nc(C(F)F)n2-c1nc(N2CCOCC2)nc(N2CCOCC2)n1 [Compound 23, 2-(2-Difluoromethyl-5-methoxybenzimidazol-1-yl)-4,6-dimorpholino-1,3,5-triazine]
IC50 ([1]; Mus musculus, Lymphocyte): 258 nM | IC50 (THP-1 cells; Homo sapiens, THP-1, 72 h): 68.6 nM | IC50 (HL 60 cells; Homo sapiens, HL-60, 72 h): 139 nM | IC50 (U 937 cells; Homo sapiens, U-937, 72 h): 345 nM | IC50 (Jurkat cells; Homo sapiens, Jurkat, 72 h): 229 nM | IC50 ([2]; Oryctolagus cuniculus, 72 h): 121 nM | IC50 (Daudi cells; Homo sapiens, Daudi, 72 h): 13.2 nM | IC50 ([3]; Homo sapiens, 72 h): 19.2 nM

ON1CCN(c2nc(N3CCOCC3)nc(-n3c(C(F)F)nc4ccccc43)n2)CC1 [Compound 26, 2-(2-Difluoromethylbenzimidazol-1-yl)-4-(4-hydroxypiperizin-1-yl)-6-morpholino-1,3,5-triazine]
IC50 (THP-1 cells): 865 nM | IC50 (mouse spleen cells; LPS 100 μg/mL, read-out: Inhibition of LPS response): 1 to 100 nM | IC50 (mouse spleen cells; concanavalin A 3 μg/mL, read-out: Inhibition of Con A response): ≤ 1 nM | IC50 (Jurkat cells): 3120 nM | IC50 [2]: 2380 nM | IC50 (Daudi cells): 426 nM
